Oligonucleotides are written 5' to 3', each unit as a sugar letter and its base; * is a phosphorothioate linkage, no mark a phosphodiester; rarer units and linkages stand in square brackets, end groups in braces. Plain capitals give the bases only. d = 2'-deoxy (DNA); r = 2'-OH (RNA)
Also: test concentration or dose not given here.

The target of the data set is UBE2H. Put plainly: reporter assay of Huesken 2005. The note with it: siRNA.
Consider “sense rArGrGrGrUrArCrCrGrGrGrGrArCrArGrCrUrCdTdT / antisense rGrArGrCrUrGrUrCrCrCrCrGrGrUrArCrCrCrUdCdT”, for which the normalised inhibition (eCFP-eYFP dual reporter) came out at 77.2%.
Consider “sense rArArArUrCrUrCrCrArUrCrUrArUrArGrGrArUdTdT / antisense rArUrCrCrUrArUrArGrArUrGrGrArGrArUrUrUdGdA”, for which the normalised inhibition (eCFP-eYFP dual reporter) came out at 96.4%.
“sense rCrArGrGrArArGrArGrGrGrUrArCrCrGrGrGrGdTdT / antisense rCrCrCrCrGrGrUrArCrCrCrUrCrUrUrCrCrUrGdTdT”: the normalised inhibition (eCFP-eYFP dual reporter) came out at 74.7%.
Consider “sense rCrCrGrArCrCrArGrArArGrArArUrArCrArArGdTdT / antisense rCrUrUrGrUrArUrUrCrUrUrCrUrGrGrUrCrGrGdTdG”, for which the normalised inhibition (eCFP-eYFP dual reporter) was found to be 86.4%.
As to “sense rCrGrCrCrArCrGrGrArGrGrArGrGrCrGrCrUrGdTdT / antisense rCrArGrCrGrCrCrUrCrCrUrCrCrGrUrGrGrCrGdTdA”, the normalised inhibition (eCFP-eYFP dual reporter) was found to be 66.8%.
For “sense rGrArUrCrUrUrArCrCrArArUrArUrArUrUrUrGdTdT / antisense rCrArArArUrArUrArUrUrGrGrUrArArGrArUrCdAdT”, the normalised inhibition (eCFP-eYFP dual reporter) came to 78.3%.
Turning to “sense rUrArUrCrCrUrArArCrCrCrCrArUrArGrArUrCdTdT / antisense rGrArUrCrUrArUrGrGrGrGrUrUrArGrGrArUrAdGdG”, the normalised inhibition (eCFP-eYFP dual reporter) is 50.2%.
In the case of “sense rArGrUrGrGrArCrCrUrArCrCrUrGrArUrArArAdTdT / antisense rUrUrUrArUrCrArGrGrUrArGrGrUrCrCrArCrUdCdT”, the normalised inhibition (eCFP-eYFP dual reporter) came to 108%.
Regarding “sense rArArArGrUrUrArGrArGrUrGrGrArCrCrUrArCdTdT / antisense rGrUrArGrGrUrCrCrArCrUrCrUrArArCrUrUrUdCdC”, the normalised inhibition (eCFP-eYFP dual reporter) came to 50%.
As to “sense rArUrArGrGrArUrUrCrArUrGrArArUrArArArAdTdT / antisense rUrUrUrUrArUrUrCrArUrGrArArUrCrCrUrArUdAdG”, the normalised inhibition (eCFP-eYFP dual reporter) was 106%.
For “sense rArArCrArCrCrArUrArUrGrArArGrGrCrGrGrAdTdT / antisense rUrCrCrGrCrCrUrUrCrArUrArUrGrGrUrGrUrUdCdC” the value was 67.8%; for “sense rGrArArUrUrUrGrUrArGrUrGrArArGrUrUrUrUdTdT / antisense rArArArArCrUrUrCrArCrUrArCrArArArUrUrCdAdT”, 96.7%; for “sense rCrArGrCrCrArUrGrUrArCrCrUrCrCrArCrCrGdTdT / antisense rCrGrGrUrGrGrArGrGrUrArCrArUrGrGrCrUrGdCdA”, 61.4%.
As for “sense rCrCrUrArArCrCrCrCrArUrArGrArUrCrCrUrCdTdT / antisense rGrArGrGrArUrCrUrArUrGrGrGrGrUrUrArGrGdAdT”, the normalised inhibition (eCFP-eYFP dual reporter) amounted to 66.9%.
With “sense rUrGrArUrCrUrUrArCrCrArArUrArUrArUrUrUdTdT / antisense rArArArUrArUrArUrUrGrGrUrArArGrArUrCrAdTdA”, the normalised inhibition (eCFP-eYFP dual reporter) was determined as 68.4%.
On to “sense rArUrGrGrUrGrArCrGrCrUrGrCrArGrCrCrArUdTdT / antisense rArUrGrGrCrUrGrCrArGrCrGrUrCrArCrCrArUdTdG”, for which the normalised inhibition (eCFP-eYFP dual reporter) was 86.6%.
“sense rUrGrUrArGrUrGrArArGrUrUrUrUrArUrGrGrAdTdT / antisense rUrCrCrArUrArArArArCrUrUrCrArCrUrArCrAdAdA”: the normalised inhibition (eCFP-eYFP dual reporter) was found to be 75.6%.
“sense rCrCrArUrArUrGrArArGrGrCrGrGrArGrUrArUdTdT / antisense rArUrArCrUrCrCrGrCrCrUrUrCrArUrArUrGrGdTdG”: the normalised inhibition (eCFP-eYFP dual reporter) came out at 102%.
Regarding “sense rUrUrArUrGrGrArCrCrArCrArArGrGrArArCrAdTdT / antisense rUrGrUrUrCrCrUrUrGrUrGrGrUrCrCrArUrArAdAdA”, the normalised inhibition (eCFP-eYFP dual reporter) is 91.7%.
For the substance “sense rArCrUrUrGrGrArCrArGrCrUrCrUrCrUrArUrGdTdT / antisense rCrArUrArGrArGrArGrCrUrGrUrCrCrArArGrUdTdT”, the normalised inhibition (eCFP-eYFP dual reporter) was determined as 86%.
As for “sense rGrUrGrGrArCrCrUrArCrCrUrGrArUrArArArUdTdT / antisense rArUrUrUrArUrCrArGrGrUrArGrGrUrCrCrArCdTdC”, the normalised inhibition (eCFP-eYFP dual reporter) came to 77.9%.
As to “sense rCrUrArUrGrArUrCrUrUrArCrCrArArUrArUrAdTdT / antisense rUrArUrArUrUrGrGrUrArArGrArUrCrArUrArGdAdG”, the normalised inhibition (eCFP-eYFP dual reporter) turned out to be 110%.
Consider “sense rCrArGrArArGrArArUrArCrArArGrCrArGrArAdTdT / antisense rUrUrCrUrGrCrUrUrGrUrArUrUrCrUrUrCrUrGdGdT”, for which the normalised inhibition (eCFP-eYFP dual reporter) stood at 77.7%.
In the case of “sense rArUrArCrCrCrUrUrUrCrArArArUrCrUrCrCrAdTdT / antisense rUrGrGrArGrArUrUrUrGrArArArGrGrGrUrArUdTdT”, the normalised inhibition (eCFP-eYFP dual reporter) was determined as 99.2%.
For “sense rArArGrUrUrArGrArGrUrGrGrArCrCrUrArCrCdTdT / antisense rGrGrUrArGrGrUrCrCrArCrUrCrUrArArCrUrUdTdC” the value was 64.2%; for “sense rGrUrCrUrArGrArUrGrUrArArUrUrArArUrCrAdTdT / antisense rUrGrArUrUrArArUrUrArCrArUrCrUrArGrArCdAdC”, 106%.
For “sense rGrArArCrUrGrUrGrUrGrUrCrUrArGrArUrGrUdTdT / antisense rArCrArUrCrUrArGrArCrArCrArCrArGrUrUrCdCdT”, the normalised inhibition (eCFP-eYFP dual reporter) was determined as 98.4%.
For “sense rGrGrArGrGrArGrGrCrGrCrUrGrArArArGrArAdTdT / antisense rUrUrCrUrUrUrCrArGrCrGrCrCrUrCrCrUrCrCdGdT” the value was 91.9%; for “sense rUrArGrArUrGrUrArArUrUrArArUrCrArArArCdTdT / antisense rGrUrUrUrGrArUrUrArArUrUrArCrArUrCrUrAdGdA”, 46.5%; for “sense rUrGrUrArCrCrUrCrCrArCrCrGrArCrCrArGrAdTdT / antisense rUrCrUrGrGrUrCrGrGrUrGrGrArGrGrUrArCrAdTdG”, 95.7%.
As to “sense rArGrGrArArCrUrGrUrGrUrGrUrCrUrArGrArUdTdT / antisense rArUrCrUrArGrArCrArCrArCrArGrUrUrCrCrUdGdA”, the normalised inhibition (eCFP-eYFP dual reporter) is 100%.
For the substance “sense rGrArCrGrCrUrGrCrArGrCrCrArUrGrUrArCrCdTdT / antisense rGrGrUrArCrArUrGrGrCrUrGrCrArGrCrGrUrCdAdC”, the normalised inhibition (eCFP-eYFP dual reporter) amounted to 55.3%.
On to “sense rUrArUrArGrGrArUrUrCrArUrGrArArUrArArAdTdT / antisense rUrUrUrArUrUrCrArUrGrArArUrCrCrUrArUrAdGdA”, for which the normalised inhibition (eCFP-eYFP dual reporter) worked out at 67.9%.
On to “sense rGrArGrUrArUrGrGrArArArGrUrUrArGrArGrUdTdT / antisense rArCrUrCrUrArArCrUrUrUrCrCrArUrArCrUrCdCdG”, for which the normalised inhibition (eCFP-eYFP dual reporter) is 83.6%.
Consider “sense rCrArArUrArUrArUrUrUrGrArGrUrCrCrUrUrCdTdT / antisense rGrArArGrGrArCrUrCrArArArUrArUrArUrUrGdGdT”, for which the normalised inhibition (eCFP-eYFP dual reporter) came out at 84.2%.

(Values after the OligoGym collection.)
